# Paper PMC12473425, “Development and Evaluation of a Modified Fixed-Dose Combination Antihypertensive Tablet Containing S-Amlodipine Besylate: A Bioequivalence and Stability Study” (Pharmaceutics, 2025)
# Columns and labels:
# [1] = Compatibility study of each API alone or 1:1 (w/w) with excipients under stressed conditions, impurities by HPLC; type: physicochemical; settings: 60 ± 2 °C/80 ± 5% RH
# Procedure: We evaluated the compatibility between APIs and excipients, for which each API in […]® tablets was individually mixed in a 1:1 (w/w) ratio with excipients used in the formulation, as well as with commonly used tablet excipients selected based on their functional roles (e.g., diluents, binders, disintegrants, lubricants, etc.). […] The compatibility study was conducted in a temperature and humidity chamber (Sunil Eyela Co., Seongnam, Korea). Samples were withdrawn at predetermined intervals and analyzed for impurities (%). A HPLC system (Agilent Technologies, Inc. CA, USA) was used for the quantitative analysis of impurities. The column used was Symmetry C8 (100 mm × 4.6 mm, 3.5 μm, Waters Corp., Milford, CT, USA). Mobile phase A consisted of a mixture of phosphate buffer (pH 2.8) and acetonitrile at a ratio of […] prepared in a 1000 mL volumetric flask. The buffer was prepared by adjusting a 10% phosphoric acid solution to pH 2.8, filtered through a 0.45 μm membrane filter (Millipore; Billerica, MA, USA), and degassed before use. Mobile phase B consisted of a phosphate buffer (pH 2.8) and acetonitrile at a ratio of 600:1400 (v/v), which was similarly prepared and degassed before use. The mobile phases were delivered at a flow rate of 1.0 mL/min, the column temperature was maintained at 35 °C, and detection was performed at a wavelength of 250 nm.
# [2] = parameters: method as in PMID 21966165; settings: low solubility and high permeability; cited from earlier work
# [3] = hydrochlorothiazide compatibility, 1w
# [4] = hydrochlorothiazide compatibility, 2w
# [5] = hydrochlorothiazide compatibility, 4w
# [6] = hydrochlorothiazide compatibility, Initial
# [7] = olmesartan medoxomil compatibility, 1w
# [8] = olmesartan medoxomil compatibility, 2w
# [9] = olmesartan medoxomil compatibility, 4w
# [10] = olmesartan medoxomil compatibility, Initial
# [11] = S-amlodipine besylate compatibility, 1w
# [12] = S-amlodipine besylate compatibility, 2w
# [13] = S-amlodipine besylate compatibility, 4w
smiles,measurement,setting,value
NS(=O)(=O)c1cc2c(cc1Cl)NCNS2(=O)=O [Hydrochlorothiazide],Benzothiadiazine Related Compound A,[1]; [3],<LOQ
same,Total Impurity,[1]; [3],0.08%
same,Unknown Impurity,[1]; [3],0.08%
same,Benzothiadiazine Related Compound A,[1]; [4],<LOQ
same,Total Impurity,[1]; [4],0.08%
same,Unknown Impurity,[1]; [4],0.08%
same,Benzothiadiazine Related Compound A,[1]; [5],<LOQ
same,Total Impurity,[1]; [5],0.08%
same,Unknown Impurity,[1]; [5],0.08%
same,Benzothiadiazine Related Compound A,[1]; [6],<LOQ
same,Total Impurity,[1]; [6],0.10%
same,Unknown Impurity,[1]; [6],0.10%
CCCc1nc(C(C)(C)O)c(C(=O)OCc2oc(=O)oc2C)n1Cc1ccc(-c2ccccc2-c2nnn[nH]2)cc1 [Olmesartan medoxomil],RNH-8276,[1]; [7],<LOQ
same,Total Impurity,[1]; [7],<LOQ
same,Unknown Impurity,[1]; [7],<LOQ
same,RNH-8276,[1]; [8],<LOQ
same,Total Impurity,[1]; [8],<LOQ
same,Unknown Impurity,[1]; [8],<LOQ
same,RNH-8276,[1]; [9],<LOQ
same,Total Impurity,[1]; [9],0.05%
same,Unknown Impurity,[1]; [9],0.05%
same,Total Impurity,[1]; [10],<LOQ
same,Unknown Impurity,[1]; [10],<LOQ
same,Biopharmaceutics Classification System (BCS) class,[2],Class II
"CCOC(=O)C1=C(COCCN)NC(C)=C(C(=O)OC)[C@@H]1c1ccccc1Cl.O.O.O=S(=O)(O)c1ccccc1 [S-amlodipine besylate, S-amlodipine besylate dihydrate]",Amlodipine Related Compound A,[1]; [11],<LOQ
same,Total Impurity,[1]; [11],<LOQ
same,Unknown Impurity,[1]; [11],<LOQ
same,Amlodipine Related Compound A,[1]; [12],<LOQ
same,Total Impurity,[1]; [12],<LOQ
same,Unknown Impurity,[1]; [12],<LOQ
same,Amlodipine Related Compound A,[1]; [13],0.06%
same,Total Impurity,[1]; [13],0.30%
same,Unknown Impurity,[1]; [13],0.16%
